In this test the target is HLA A*3001 (Homo sapiens, UniProt P04439, D140H/D185E/E176W/F33S/G80R/H175R/K168Q/R138E/R41S). In words: biochemical. Type of test: binding.

Where a SMILES comes first, the peptide text is derived from it.

By IC50 is commonly meant the concentration needed to halve the response being measured. Lower therefore signals greater potency in that assay.

Chain of HLA A*3001 (P04439 25-365 limits assumed, stated change not applied): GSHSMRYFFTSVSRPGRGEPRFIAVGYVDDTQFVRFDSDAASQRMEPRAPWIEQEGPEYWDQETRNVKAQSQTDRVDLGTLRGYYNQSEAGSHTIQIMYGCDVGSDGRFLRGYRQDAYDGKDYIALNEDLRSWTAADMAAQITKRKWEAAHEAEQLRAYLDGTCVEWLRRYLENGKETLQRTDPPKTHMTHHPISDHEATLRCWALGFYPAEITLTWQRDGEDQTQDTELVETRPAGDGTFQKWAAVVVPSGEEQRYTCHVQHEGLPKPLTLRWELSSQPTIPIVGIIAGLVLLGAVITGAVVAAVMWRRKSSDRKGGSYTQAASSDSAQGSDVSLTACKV

`CC[C@H](C)[C@H](NC(=O)[C@@H](N)CO)C(=O)N[C@@H](CCCNC(=N)N)C(=O)N[C@@H](CCCNC(=N)N)C(=O)N[C@@H](CC(N)=O)C(=O)N[C@@H](CC(C)C)C(=O)N[C@@H](C)C(=O)N[C@@H](CC(C)C)C(=O)N[C@@H](CCCCN)C(=O)O` [3102.0157] (H-SIRRNLALK-OH) gave an IC50 of 12 nM. That is a double-digit nanomolar value.

`CC(C)C[C@H](NC(=O)[C@H](CC(C)C)NC(=O)[C@H](CCCNC(=N)N)NC(=O)[C@@H](NC(=O)[C@@H](N)CO)C(C)C)C(=O)N[C@@H](CC(N)=O)C(=O)N[C@@H](Cc1ccc(O)cc1)C(=O)N[C@@H](Cc1ccccc1)C(=O)N[C@@H](CCCCN)C(=O)O` [3102.0158] (H-SVRLLNYFK-OH) had an IC50 of 0.24 nM. Consider `CC[C@H](C)[C@H](NC(=O)[C@H](CO)NC(=O)[C@@H](NC(=O)[C@@H](N)CCCCN)C(C)C)C(=O)N[C@@H](CC(C)C)C(=O)N[C@@H](Cc1c[nH]cn1)C(=O)N1CCC[C@H]1C(=O)N[C@H](C(=O)N[C@@H](CO)C(=O)O)[C@@H](C)CC` [3102.0159] (H-KVSILHPIS-OH), for which the IC50 came out at 11 nM. Compared with the last compound, the IC50 is about 46-fold higher.

In turn, `CC[C@H](C)[C@H](NC(=O)[C@H](C)N)C(=O)N[C@@H](CCCNC(=N)N)C(=O)N[C@@H](C)C(=O)NCC(=O)N[C@@H](Cc1ccc(O)cc1)C(=O)N[C@@H](CO)C(=O)N[C@H](C(=O)N[C@H](C(=O)O)C(C)C)[C@@H](C)CC` [3102.0160] (H-AIRAGYSIV-OH) yielded an IC50 of 1.4 nM.

Compound `CC(C)C[C@H](NC(=O)[C@H](CC(N)=O)NC(=O)[C@H](CC(C)C)NC(=O)[C@H](Cc1c[nH]c2ccccc12)NC(=O)[C@H](CO)NC(=O)[C@H](CC(N)=O)NC(=O)[C@H](CCCCN)NC(=O)[C@H](C)NC(=O)[C@@H](N)CO)C(=O)O` [3102.0164] (H-SAKNSWLNL-OH) showed an IC50 of 0.57 nM. The result for `CC[C@H](C)[C@H](NC(=O)[C@@H]1CCCN1C(=O)[C@H](CCCCN)NC(=O)[C@@H](NC(=O)[C@@H](N)CCCNC(=N)N)[C@@H](C)O)C(=O)N[C@@H](CO)C(=O)N[C@@H](CCSC)C(=O)N[C@@H](Cc1ccc(O)cc1)C(=O)N[C@@H](Cc1ccccc1)C(=O)O` [3102.0165] (H-RTKPISMYF-OH) reads 0.6 nM; that for `CC[C@H](C)[C@H](NC(=O)[C@H](CO)NC(=O)[C@@H](NC(=O)[C@H](CCC(N)=O)NC(=O)[C@H](CCCCN)NC(=O)[C@@H](NC(=O)[C@@H](N)CCCNC(=N)N)C(C)C)[C@@H](C)CC)C(=O)N[C@@H](CO)C(=O)N[C@H](C(=O)O)[C@@H](C)O` [3102.0166] (H-RVKQISIST-OH), 0.37 nM. The compound `CC(C)C[C@H](NC(=O)[C@H](CO)NC(=O)[C@@H]1CCCN1C(=O)[C@H](CC(C)C)NC(=O)[C@H](Cc1ccc(O)cc1)NC(=O)[C@H](CCCNC(=N)N)NC(=O)[C@@H](NC(=O)[C@@H](N)CCCNC(=N)N)[C@@H](C)O)C(=O)N[C@H](C(=O)O)C(C)C` [3102.0167] (H-RTRYLPSLV-OH) returned an IC50 of 0.49 nM. The figure for `C[C@@H](O)[C@H](N)C(=O)N[C@H](C(=O)N[C@@H](CCCCN)C(=O)N[C@@H](CC(=O)O)C(=O)N[C@@H](Cc1ccc(O)cc1)C(=O)N[C@@H](Cc1ccccc1)C(=O)N[C@@H](CO)C(=O)N[C@@H](Cc1ccccc1)C(=O)N[C@@H](CCCCN)C(=O)O)[C@@H](C)O` [3102.0168] (H-TTKDYFSFK-OH) is 1.2 nM. In turn, `CC[C@H](C)[C@H](NC(=O)[C@@H](NC(=O)[C@@H](N)CCCNC(=N)N)[C@@H](C)O)C(=O)N[C@@H](CS)C(=O)N[C@H](C(=O)N[C@@H](CC(C)C)C(=O)N1CCC[C@H]1C(=O)N[C@@H](Cc1ccc(O)cc1)C(=O)N[C@@H](CC(C)C)C(=O)O)[C@@H](C)O` [3102.0170] (H-RTICTLPYL-OH) gave an IC50 of 0.74 nM. The figure for `CC(C)C[C@H](NC(=O)[C@H](Cc1ccc(O)cc1)NC(=O)[C@H](CO)NC(=O)[C@H](CO)NC(=O)[C@H](CO)NC(=O)[C@@H](NC(=O)[C@@H](N)CO)[C@@H](C)O)C(=O)N[C@@H](Cc1ccc(O)cc1)C(=O)N[C@@H](C)C(=O)O` [3102.0171] (H-STSSSYLYA-OH) is 13 nM; for `CSCC[C@H](NC(=O)[C@H](CCCCN)NC(=O)[C@H](CCCCN)NC(=O)[C@H](Cc1ccc(O)cc1)NC(=O)[C@H](CCCNC(=N)N)NC(=O)[C@H](C)NC(=O)[C@@H](N)CCCNC(=N)N)C(=O)N[C@@H](CC(C)C)C(=O)N[C@@H](CCCCN)C(=O)O` [3102.0172] (H-RARYKKMLK-OH) it is 1 nM. The figure for `CSCC[C@H](N)C(=O)N[C@@H](CC(C)C)C(=O)N[C@@H](CCCNC(=N)N)C(=O)N[C@@H](Cc1ccccc1)C(=O)N[C@@H](C)C(=O)N[C@@H](CC(N)=O)C(=O)N1CCC[C@H]1C(=O)N[C@@H](CC(C)C)C(=O)N[C@@H](CO)C(=O)O` [3102.0173] (H-MLRFANPLS-OH) is 0.17 nM; for `CSCC[C@H](NC(=O)[C@H](CCC(=O)O)NC(=O)[C@H](CO)NC(=O)[C@H](CC(C)C)NC(=O)[C@H](CCCNC(=N)N)NC(=O)[C@@H](NC(=O)[C@@H](N)CCCCN)[C@@H](C)O)C(=O)N[C@@H](CC(C)C)C(=O)N[C@@H](CO)C(=O)O` [3102.0174] (H-KTRLSEMLS-OH) it is 0.45 nM; for `CC(C)[C@H](NC(=O)[C@H](CO)NC(=O)[C@H](CCCNC(=N)N)NC(=O)[C@H](Cc1ccccc1)NC(=O)[C@H](CCCNC(=N)N)NC(=O)[C@H](Cc1ccccc1)NC(=O)[C@@H](N)CCCNC(=N)N)C(=O)N[C@@H](Cc1ccc(O)cc1)C(=O)NCC(=O)O` [3102.0175] (H-RFRFRSVYG-OH) it is 0.36 nM. As for `C[C@H](NC(=O)[C@H](C)NC(=O)[C@H](CCCCN)NC(=O)CNC(=O)[C@@H](N)CCCCN)C(=O)N[C@@H](C)C(=O)N[C@@H](Cc1ccccc1)C(=O)N[C@@H](C)C(=O)N[C@@H](CCCCN)C(=O)O` [3102.0176] (H-KGKAAAFAK-OH), the IC50 stood at 3.1 nM. The result for `CC(C)C[C@H](NC(=O)[C@H](C)NC(=O)[C@@H](N)CO)C(=O)N[C@@H](Cc1ccc(O)cc1)C(=O)N[C@@H](CO)C(=O)N[C@@H](Cc1ccc(O)cc1)C(=O)N[C@@H](C)C(=O)N[C@@H](CO)C(=O)N[C@@H](C)C(=O)O` [3102.0177] (H-SALYSYASA-OH) reads 37 nM; that for `CC(C)C[C@H](NC(=O)[C@H](CO)NC(=O)[C@H](CC(C)C)NC(=O)[C@H](CS)NC(=O)[C@H](CCCNC(=N)N)NC(=O)[C@H](CO)NC(=O)[C@@H](N)CS)C(=O)N[C@@H](Cc1ccccc1)C(=O)N[C@@H](Cc1ccc(O)cc1)C(=O)O` [3102.0178] (H-CSRCLSLFY-OH), 22 nM. The result for `CC(C)C[C@H](NC(=O)[C@H](C)NC(=O)[C@H](Cc1ccc(O)cc1)NC(=O)[C@H](CCCNC(=N)N)NC(=O)[C@@H](NC(=O)[C@@H](N)CC(C)C)[C@@H](C)O)C(=O)N[C@@H](Cc1c[nH]cn1)C(=O)NCC(=O)N[C@@H](CCCCN)C(=O)O` [3102.0179] (H-LTRYALHGK-OH) reads 0.25 nM; that for `CC[C@H](C)[C@H](NC(=O)[C@@H](NC(=O)[C@H](CO)NC(=O)[C@H](CCCNC(=N)N)NC(=O)[C@H](CC(C)C)NC(=O)[C@H](CO)NC(=O)[C@@H](N)CCSC)[C@@H](C)O)C(=O)N[C@H](C(=O)N[C@@H](CCCCN)C(=O)O)[C@@H](C)CC` [3102.0180] (H-MSLRSTIIK-OH), 37 nM.

`CC(C)C[C@H](NC(=O)[C@H](CC(C)C)NC(=O)[C@H](Cc1ccc(O)cc1)NC(=O)[C@@H](NC(=O)[C@H](C)NC(=O)[C@H](CCCCN)NC(=O)[C@@H](NC(=O)[C@@H](N)C(C)C)C(C)C)[C@@H](C)O)C(=O)N[C@@H](CCCCN)C(=O)O` [3102.0181] (H-VVKATYLLK-OH): 0.32 nM corresponded to half-maximal inhibition (IC50).
